Converted amounts (≈) assume the structure as drawn. Read-outs that look alike come from different tables or passages of the source. Peptide text beside a SMILES is read from it.
How the values were obtained:
E. coli ATCC 25922 = assay type: cell-based, Escherichia coli
Method in brief: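 Broth microdilution: log-phase E. coli diluted to OD600 0.001 and exposed to two-fold serial peptide dilutions overnight at 37 °C. Growth read at 630 nm.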

Hemolytic assay = assay type: cell-based, human; conditions: human, human red blood cells, 2% (v/v)
Method in brief: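 Washed hRBCs (2% v/v) exposed to peptide for 1 h at 37 °C, then centrifuged and hemoglobin in supernatant read at 545 nm. Lysis normalized to Triton X-100 (2% or 1%; 100%) and PBS (0%); HL50 is the peptide concentration giving 50% lysis, and CSI is HL50/MIC.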

P. aeruginosa PAO1 = assay type: cell-based, Pseudomonas aeruginosa
Method in brief: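 Broth microdilution in tryptic soy broth: log-phase cultures (OD600 ≈0.5) diluted to OD600 0.001, given two-fold peptide dilutions, incubated overnight at 37° C. Growth read at 630 nm.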

S. aureus USA300 = assay: microbe, parasite or virus in culture; assay type: cell-based, Staphylococcus aureus
Method in brief: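 Broth microdilution: log-phase cultures in tryptic soy broth diluted to OD600 0.001, exposed to two-fold diluted peptides at 37° C overnight, growth read at 630 nm. Medium effects on S. aureus USA300 tested with up to 200 mM NaCl, 2 mM CaCl2, 5-10% human serum, mouse plasma, fluids or tissue homogenate supernatants.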

[1] = system: Klebsiella pneumoniae clinical strains; assay: microbe, parasite or virus in culture; conditions: Klebsiella pneumoniae
Procedure: The antibacterial activity of peptides was evaluated using a standard broth microdilution protocol with minor modifications (Mishra, et al. (2017) Acta Biomater., 49:316-328). In brief, logarithmic phase bacterial cultures (i.e., optical density at 600 nm≈0.5) were diluted to 0.001 OD and aliquoted 90 μL per well into a 96-well polystyrene microplate. Added 10 μL peptides per well with various concentrations, plates were incubated at 37° C., overnight. Post incubation the plates are read at 630 nm using a ChroMate® Microplate Reader (GMI). […] To study the influence of medium conditions on the antimicrobial activity of peptides against S. aureus USA300 at different pHs (6.8, 7.2, and 8.0), 150 mM sodium chloride (NaCl), 5-10% of human serum, mouse plasma, and peritoneal fluid were included into the assays.

[2] = Table 4, quantitated based on weight

| Compound | MIC EC (E. coli ATCC 25922) (E. coli ATCC 25922; ATCC 25922) [µM] | HC50 at 1 h (Hemolytic assay) [µM] | MIC PA (P. aeruginosa PAO1) (P. aeruginosa PAO1; PAO1) [µM] | MIC SA (S. aureus USA300) (S. aureus USA300; USA300) [µM] | also measured |
| --- | --- | --- | --- | --- | --- |
| CC(C)C[C@H](NC(=O)[C@H](CC(C)C)NC(=O)[C@H](CCCCN)NC(=O)CNC(=O)[C@H](CC(C)C)NC(=O)[C@H](CC(C)C)NC(=O)[C@H](CO)NC(=O)[C@H](CC(C)C)NC(=O)[C@H](CC(C)C)NC(=O)[C@H](CC(C)C)NC(=O)[C@H](CO)NC(=O)[C@H](CC(C)C)NC(=O)CN)C(N)=O [DFT502, GLSLLLSLLGKLL] (H-GLSLLLSLLGKLL-NH2; N-terminus and C-terminus assumed) | >25 | 3.1 | >25 | 1.6 (≈ 2.14 µg/mL) |  |
| CC(C)C[C@H](NC(=O)[C@H](CCCCN)NC(=O)CNC(=O)[C@H](CC(C)C)NC(=O)[C@H](CC(C)C)NC(=O)[C@H](CC(C)C)NC(=O)[C@H](CO)NC(=O)[C@H](CC(C)C)NC(=O)[C@H](CC(C)C)NC(=O)[C@H](CC(C)C)NC(=O)[C@H](CO)NC(=O)[C@H](CC(C)C)NC(=O)CN)C(N)=O [DFT504, GLSLLLSLLLGKL] (H-GLSLLLSLLLGKL-NH2; N-terminus and C-terminus assumed) | >25 | 8 | >25 | 6.2 (≈ 8.3 µg/mL) |  |
| CC(C)C[C@H](NC(=O)[C@H](CC(C)C)NC(=O)[C@H](CCCCN)NC(=O)CNC(=O)[C@H](CC(C)C)NC(=O)[C@H](CC(C)C)NC(=O)[C@H](CC(C)C)NC(=O)[C@H](CC(C)C)NC(=O)[C@H](CO)NC(=O)[C@H](CO)NC(=O)[C@H](CC(C)C)NC(=O)[C@H](CC(C)C)NC(=O)CN)C(N)=O [DFT505, GLLSSLLLLGKLL] (H-GLLSSLLLLGKLL-NH2; N-terminus and C-terminus assumed) | >25 | 20 | >25 | 3.1 (≈ 4.15 µg/mL) |  |
| CC(C)C[C@H](NC(=O)[C@H](CC(C)C)NC(=O)CNC(=O)[C@H](CC(C)C)NC(=O)[C@H](CC(C)C)NC(=O)[C@H](CO)NC(=O)[C@H](CC(C)C)NC(=O)[C@H](CC(C)C)NC(=O)[C@H](CO)NC(=O)[C@H](CC(C)C)NC(=O)[C@H](CC(C)C)NC(=O)[C@H](CCCCN)NC(=O)CN)C(N)=O [DFT527, GKLLSLLSLLGLL] (H-GKLLSLLSLLGLL-NH2; N-terminus and C-terminus assumed) | >25 | 20 | >25 | 3.1 (≈ 4.15 µg/mL) |  |
| CC(C)C[C@H](NC(=O)[C@H](CC(C)C)NC(=O)[C@H](CCCCN)NC(=O)[C@H](CC(C)C)NC(=O)CNC(=O)[C@H](CC(C)C)NC(=O)[C@H](CO)NC(=O)[C@H](CC(C)C)NC(=O)[C@H](CC(C)C)NC(=O)[C@H](CO)NC(=O)[C@H](CC(C)C)NC(=O)[C@H](CC(C)C)NC(=O)CN)C(N)=O [DFT531, GLLSLLSLGLKLL] (H-GLLSLLSLGLKLL-NH2; N-terminus and C-terminus assumed) |  |  |  |  | MIC EC (E. coli ATCC 25922) (E. coli ATCC 25922; [2]): >25 µM; HC50 at 1 h (Hemolytic assay; Table 4, quantitated based on weight, read-out: HL50, peptide concentration for 50% hemolysis): 7 µM; MIC PA (P. aeruginosa PAO1) (P. aeruginosa PAO1; [2]): >25 µM; MIC SA (S. aureus USA300) (S. aureus USA300; [2]): 0.8 µM (≈ 1.07 µg/mL) |
| CC(C)C[C@H](NC(=O)[C@H](CC(C)C)NC(=O)[C@H](CCCCN)NC(=O)[C@H](CC(C)C)NC(=O)CNC(=O)[C@H](CC(C)C)NC(=O)[C@H](CO)NC(=O)[C@H](CC(C)C)NC(=O)[C@H](CC(C)C)NC(=O)[C@H](CO)NC(=O)CNC(=O)[C@H](CC(C)C)NC(=O)[C@@H](N)CC(C)C)C(N)=O [DFT532, LLGSLLSLGLKLL] (H-LLGSLLSLGLKLL-NH2; N-terminus and C-terminus assumed) | >25 | 13 | >25 | 1.6 (≈ 2.14 µg/mL) |  |
| CC(C)C[C@H](NC(=O)[C@H](CC(C)C)NC(=O)[C@H](CCCCN)NC(=O)[C@H](CC(C)C)NC(=O)CNC(=O)[C@H](CC(C)C)NC(=O)[C@H](CO)NC(=O)[C@H](CC(C)C)NC(=O)[C@H](CC(C)C)NC(=O)[C@H](CC(C)C)NC(=O)[C@H](CO)NC(=O)[C@H](CC(C)C)NC(=O)[C@@H](N)CCCCN)C(N)=O [DFT560, KLSLLLSLGLKLL] (H-KLSLLLSLGLKLL-NH2; N-terminus and C-terminus assumed) | >25 | 25 | >25 |  | MIC SA (S. aureus USA300) (S. aureus USA300; [2]): 1.6 µM (≈ 2.26 µg/mL) |
| CC(C)C[C@H](NC(=O)[C@H](CC(C)C)NC(=O)[C@H](CCCCN)NC(=O)[C@H](CC(C)C)NC(=O)CNC(=O)[C@H](CC(C)C)NC(=O)[C@H](CCCCN)NC(=O)[C@H](CC(C)C)NC(=O)[C@H](CC(C)C)NC(=O)[C@H](CC(C)C)NC(=O)[C@H](CO)NC(=O)[C@H](CC(C)C)NC(=O)CN)C(N)=O [DFT562, GLSLLLKLGLKLL] (H-GLSLLLKLGLKLL-NH2; N-terminus and C-terminus assumed) | >25 | < 25 | >25 |  |  |
| CC(C)C[C@H](NC(=O)[C@H](CC(C)C)NC(=O)[C@H](CCCCN)NC(=O)[C@H](CC(C)C)NC(=O)[C@H](CCCCN)NC(=O)[C@H](CC(C)C)NC(=O)[C@H](CO)NC(=O)[C@H](CC(C)C)NC(=O)[C@H](CC(C)C)NC(=O)[C@H](CC(C)C)NC(=O)[C@H](CO)NC(=O)[C@H](CC(C)C)NC(=O)CN)C(N)=O [DFT563, GLSLLLSLKLKLL] (H-GLSLLLSLKLKLL-NH2; N-terminus and C-terminus assumed) | >25 | > 300 | >25 | 6.2 (≈ 8.74 µg/mL) |  |
| CC(C)C[C@H](NC(=O)[C@H](CC(C)C)NC(=O)[C@H](CCCCN)NC(=O)[C@H](CC(C)C)NC(=O)CNC(=O)[C@H](CC(C)C)NC(=O)[C@H](CCCCN)NC(=O)[C@H](CC(C)C)NC(=O)[C@H](CC(C)C)NC(=O)[C@H](CC(C)C)NC(=O)[C@H](CCCCN)NC(=O)[C@H](CC(C)C)NC(=O)CN)C(N)=O [DFT564, GLKLLLKLGLKLL] (H-GLKLLLKLGLKLL-NH2; N-terminus and C-terminus assumed) | >25 | < 25 | >25 |  | MIC (S. aureus USA300; USA300): 3.1 µM (≈ 4.4 µg/mL); MIC (S. aureus USA300; USA300, pH 6.8): 1.6 µM (≈ 2.27 µg/mL); MIC (S. aureus USA300; USA300, pH 7.4): 3.1 µM (≈ 4.4 µg/mL); MIC (S. aureus USA300; USA300, pH 8): 1.6 µM (≈ 2.27 µg/mL) |
| CC(C)C[C@H](NC(=O)[C@H](CC(C)C)NC(=O)[C@H](CCCCN)NC(=O)[C@H](CC(C)C)NC(=O)CNC(=O)[C@H](CC(C)C)NC(=O)[C@H](CCCCN)NC(=O)[C@H](CC(C)C)NC(=O)[C@H](CC(C)C)NC(=O)[C@H](CC(C)C)NC(=O)[C@H](CCCCN)NC(=O)[C@H](CC(C)C)NC(=O)[C@@H](N)CCCCN)C(N)=O [DFT565, KLKLLLKLGLKLL] (H-KLKLLLKLGLKLL-NH2; N-terminus and C-terminus assumed) | >25 | 50 | >25 | 0.8 (≈ 1.19 µg/mL) | MIC (S. aureus USA300; USA300): 3.1 µM (≈ 4.63 µg/mL); MIC (S. aureus USA300; USA300, pH 6.8): 3.1 to 6.2 µM; MIC (S. aureus USA300; USA300, pH 7.4): 3.1 µM (≈ 4.63 µg/mL); MIC (S. aureus USA300; USA300, pH 8): 3.1 µM (≈ 4.63 µg/mL) |
| CN(C)c1cc(NC(=O)CNC(C)(C)C)c(O)c2c1C[C@H]1C[C@H]3[C@H](N(C)C)C(O)=C(C(N)=O)C(=O)[C@@]3(O)C(O)=C1C2=O [Tigecycline, reference compound] |  |  |  |  | MIC ([1]; strain KP-231-18): 4 µM (≈ 2.34 µg/mL); MIC ([1]; strain KP-232-18): 8 µM (≈ 4.69 µg/mL); MIC ([1]; strain KP-245-18): 4 µM (≈ 2.34 µg/mL); MIC ([1]; strain KP-249-18): 2 µM (≈ 1.17 µg/mL); MIC ([1]; strain KP-253-18): 2 µM (≈ 1.17 µg/mL); MIC ([1]; strain KP-256-18): 4 µM (≈ 2.34 µg/mL); MIC ([1]; strain KP-257-18): 8 µM (≈ 4.69 µg/mL); MIC ([1]; strain KP-262-18): 4 µM (≈ 2.34 µg/mL); MIC ([1]; strain KP-270-18): 4 µM (≈ 2.34 µg/mL); MIC ([1]; strain KP-B42-15): < 2 µM; MIC ([1]; strain KP-B53-15): 2 µM (≈ 1.17 µg/mL); MIC ([1]; strain KP-B73-15): 2 µM (≈ 1.17 µg/mL); MIC ([1]; strain KP-B77-15): < 2 µM; MIC ([1]; strain KP-B1725-18): 2 µM (≈ 1.17 µg/mL) |

From patent publication US12173088B2, “Anti-microbial peptides” (priority 2018, dated 2024)
